{"source": "patent US20260286302A1", "about": "“METHODS FOR PRODUCING A SUPER CENTRAL MEMORY CD8 T CELL SUBTYPE BY POLY(ADP-RIBOSE) POLYMERASE (PARP) INHIBITION AND USES THEREOF” (Georgetown University, priority 2023, published 2026)", "key": {"TC-1 tumors": {"tested_on": "TC-1 tumors", "test": "TC-1 tumor model: tumor growth and survival", "assay_type": "in vivo, mouse", "conditions": "for mice survived: TC-1 tumor model, day 22", "method": "(§1) C57BL/6J mice were injected with 7×10^4 TC-1 cells per mouse or 1×10^5B16F10 cells per mouse in the right flank. Treatment in respective groups was started when tumors reached an average size of approximately 0.075 cm^3. […] Mice were treated daily with IP injection at a dose of 50 mg kg-1.\n(§2) For vaccination, TC-1-specific E7 peptide (a nine amino acid peptide, […] (SEQ ID NO: 1); 100 μg per mouse per 100 μl; Celtak Bioscience) or B16-specific gp10025-33 nonamer peptide ([…] (SEQ ID NO: 2); 100 μg per mouse per 100 μl; AnaSpec) were used. Both the vaccines were mixed with a small 13-mer nonnatural pan-HLA DR-binding epitope (PADRE (SEQ ID NO: 3); aK-Cha-[…]a (SEQ ID NO: 4), where ‘a’ is d-alanine, and ‘Cha’ is 1-cyclohexylalanine, T helper epitope, 20 μg per mouse; Celtak Bioscience) and QuilA (adjuvant, 10 μg per mouse; Brenntag). For survival and therapy experiments, mice were vaccinated three times, starting at an average tumor size of 0.07 cm^3, while for immune response experiments mice were vaccinated twice with a one-week interval between vaccinations. Tumors were measured every 3-4 days using a digital vernier caliper, and the tumor volume was calculated using the formula: V=L×W2/2000, where V is tumor volume, L is the length of the tumor (longer diameter) and W is the width of the tumor (shorter diameter). Mice were monitored for tumor growth and survival. Mice were euthanized when the tumor volume reached 1.5 cm^3."}, "B16F10 tumors": {"tested_on": "B16F10 tumors", "test": "B16F10 tumor model: tumor growth and survival", "assay_type": "in vivo, mouse", "method": "as §1, §2"}, "TC-1": {"tested_on": "TC-1", "test": "Tumor growth in immune deficient nude mice (TC-1)", "assay_type": "in vivo, mouse", "conditions": "TC-1 in immune deficient nude mice", "method": "(§3) The effect of PARPi on direct CD8 T cell-driven anti-tumor immune response remains poorly understood. Therefore, to dissect this effect, the anti-tumor immune effect of PARPi was tested in vivo in tumor models that require T cell priming, which helps delineate the direct effect of the drug on CD8 T cells. […] While 18% and 10% of mice survived in the vaccine-treated and PARPi-treated groups, respectively, in the TC-1 tumor model at day 22, 90% survived when PARPi was added to the vaccine. Similarly, in the B16F10 tumor model, 10% of the mice treated with vaccine alone were alive at day 22, compared to 40% when PARPi was added."}, "B16F10": {"tested_on": "B16F10", "test": "Tumor growth in immune deficient nude mice (B16F10)", "assay_type": "in vivo, mouse", "method": "as §3"}, "human CD8 T cells": {"tested_on": "human CD8 T cells", "test": "In vitro-activated human CD8+ T cells, memory characteristics", "assay_type": "cell-based", "conditions": "anti-CD3/CD28 coupled beads for 72 h", "method": "For evaluation of memory characteristics in human CD8+ T cells, naive CD8+ T cells were activated in the presence or absence of PARPi, by Dynabeads™ Human T-Activator CD3/CD28 (Thermo Fisher #11131), […]. Post-activation cells were gated upon CD8^+ T cell population and various characteristics were investigated as described in the Examples below.\nA total of 0.1-0.2×10^6 cells per sample were stained for Live/Dead staining followed by fixation and permeabilization. For IFNγ and granzyme B (Gzm B) staining, BD Cytofix/Cytoperm (catalog no. 51-2090KZ) and BD Perm/Wash (catalog no. 51-2091KZ) buffer set were used according to the manufacturer's instructions (BD Pharmingen). CD8^+ T cells from tumor samples were stained similarly. Data acquisition was performed on a BD LSR II flow cytometer using the software FACS Diva v.9.0. Results were analyzed using FlowJo software (TreeStar). MitoFM, a green-fluorescent mitochondrial stain, which localizes to mitochondria, was used as described previously (Sukumar et al., Cell Metab 23 (1): 63-76, 2016).\nTo this end, human naïve CD8 T cells were activated with anti-CD3/CD28 coupled beads for 72 h."}, "[1]": {"tested_on": "CD8 T cells of patients with recurrent ovarian cancer", "test": "PBMC of ovarian cancer patients pre and post treatment", "assay_type": "in vivo, human", "method": "Peripheral blood mononuclear cells (PBMCs) were isolated from whole blood collected in cell preparation tubes (CPT) with sodium citrate and viably frozen until analysis. After thawing, PBMCs were washed with flow buffer (5% BSA, 2 mM EDTA in PBS), incubated with Fc receptor blocking reagent (Miltenyi Biotec) and stained with monoclonal antibodies for 20-30 min at 4° C. For staining for Ki-67 and Granzyme B, cells were fixed and permeabilized using a Fix/Perm buffer (eBiosciences) according to the manufacturer's instructions. Dead cells were excluded from the analysis by using the viability dye, LIVE/DEAD Fixable (Life Technologies). All assays were performed using multiparametric flow cytometry (MACSQuant; Miltenyi Biotec). Data were analyzed using FlowJo software v.10.6.1 (FlowJo, LLC). Flow cytometric data were quantified either as the median fluorescence intensity or as a percentage of cells, as indicated."}, "pMel-1 CD8 T cells": {"tested_on": "pMel-1 CD8 T cells", "test": "RNA-sequencing of gp100-activated pMel-1 CD8 T cells", "assay_type": "cell-based, mouse", "excerpt": "Ribo-Zero Plus Kit from Illumina® was used for stranded Total RNA Prep Ligation. This protocol involves the removal of ribosomal RNA (rRNA) using biotinylated, target-specific oligos combined with Ribo-Zero rRNA removal beads. RNA was fragmented into small pieces and the cleaved RNA fragments were copied into first strand cDNA using reverse transcriptase and random primers, followed by second strand cDNA synthesis using DNA Polymerase I and RNase H. The resulting double-strand cDNA were used as the input to a standard Illumina library prep with end-repair, adapter ligation and PCR amplification being performed to give a sequencing ready library. The final purified product was then quantitated by qPCR before cluster generation and sequencing on NovaSeq 6000 instrument."}}, "data": [{"smiles": "O=C(c1cc(Cc2n[nH]c(=O)c3ccccc23)ccc1F)N1CCN(C(=O)C2CC2)CC1", "note": "[olaparib]", "values": [{"measurement": "tumor growth and survival, enhancement of anti-tumor immune response of the vaccine", "setting": "TC-1 tumors; TC-1, PARPi 50 mg/kg IP daily in combination with HPV E7 vaccine", "result": "significantly retarding tumor growth and prolonging survival"}, {"measurement": "anti-tumor effect after depletion of CD8 T cells", "setting": "TC-1 tumors; TC-1, PARPi with vaccine, CD8 T cell depleting antibodies", "result": "loss of the anti-tumor effect"}, {"measurement": "mice survived", "setting": "TC-1 tumors; PARPi added to the vaccine (HPV E7)", "result": 90, "unit": "%"}, {"measurement": "mice survived", "setting": "TC-1 tumors; treatment alone", "result": 10, "unit": "%"}, {"measurement": "tumor growth and survival, enhancement of anti-tumor immune response of the vaccine", "setting": "B16F10 tumors; B16F10, PARPi 50 mg/kg IP daily in combination with gp100 vaccine", "result": "significantly retarding tumor growth and prolonging survival"}, {"measurement": "mice alive", "setting": "B16F10 tumors; B16F10 tumor model, day 22, PARPi added to the vaccine (gp100)", "result": 40, "unit": "%"}, {"measurement": "single agent effect", "setting": "B16F10 tumors; B16 model, PARPi alone", "result": "no single agent effect"}, {"measurement": "tumor growth", "setting": "TC-1", "result": "did not affect tumor growth"}, {"measurement": "tumor growth", "setting": "B16F10", "result": "did not affect tumor growth"}, {"measurement": "IFNγ expression", "setting": "human CD8 T cells", "result": "significant increase"}, {"measurement": "number of CD45ROhiCCR7hi cells", "setting": "human CD8 T cells", "result": "significant increase"}, {"measurement": "number of CD45ROhiCD62Lhi cells", "setting": "human CD8 T cells", "result": "significant increase"}, {"measurement": "frequency of Ki67+ CD8 T cells", "setting": "[1]; olaparib plus anti-PDL1 (Durvalumab), pre vs post treatment", "result": "decrease"}, {"measurement": "CD62L expression in TCM CD8 T cells", "setting": "[1]; olaparib plus anti-PDL1 (Durvalumab), some patients", "result": "increased"}, {"measurement": "patients with an increase in TCM CD8 T cells", "setting": "[1]; ovarian cancer patients treated with olaparib plus anti-PDL1 (Durvalumab), pre vs post treatment", "result": 63, "unit": "%"}, {"measurement": "genes related to OXPHOS and FAO (Acot1, Cpt1α)", "setting": "pMel-1 CD8 T cells; PARPi-treated vs gp100, 48 h", "result": "significantly upregulated"}, {"measurement": "genes related to the glycolysis pathway (Eno1, Aldoc, Pgk1, Gapdh)", "setting": "pMel-1 CD8 T cells; PARPi-treated vs gp100, 48 h", "result": "significantly downregulated"}, {"measurement": "expression of genes related to memory (Sell, Bcl2, Ccr7, Slpr1, Cd44, Tcf7, Klf2, Eomes)", "setting": "pMel-1 CD8 T cells; after PARPi treatment, 48 h", "result": "significant increase"}]}]}
